This is an account of results in PubChem BioAssay AID330 (DTP/NCI, 2004).

Where “and” joins values, the source holds several entries; their conditions need not be identical. Equal values may be shown once. Toxic doses and inconclusive results are not listed.

The test system of the experiment is P388 leukemia ip, CD2F1 mice, survival T/C. Put plainly: NCI In Vivo Anticancer Drug Screen. Data for tumor model P388 Leukemia (intraperitoneal) in CD2F1 (CDF1) mice. Particulars: endpoint: median survival time, higher = longer survival. The gist of the method: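 Mice carrying the transplanted tumor received test compound or vehicle. Survival was recorded in each group, and the value is the treated-group measurement divided by that of the vehicle-treated control group.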

Where [1] appears, read: dose: 6.25 mg/kg/injection, schedule: Q01DX009 (ip), vehicle: Klucel (hydroxypropylcellulose) (HPC).
The mark [2] stands for this setting: dose: 12.5 mg/kg/injection, schedule: Q01DX009 (ip), vehicle: Klucel (hydroxypropylcellulose) (HPC).
Where [3] appears, read: dose: 25.0 mg/kg/injection, schedule: Q01DX009 (ip), vehicle: Klucel (hydroxypropylcellulose) (HPC).
The mark [4] stands for this setting: dose: 25.0 mg/kg/injection, schedule: Q01DX005 (ip), vehicle: saline with Tween-80.
Setting [5] is: dose: 50.0 mg/kg/injection, schedule: Q01DX005 (ip), vehicle: saline with Tween-80.
The mark [6] stands for this setting: dose: 100.0 mg/kg/injection, schedule: Q01DX005 (ip), vehicle: saline with Tween-80.
Setting [7] is: dose: 50.0 mg/kg/injection, schedule: Q01DX009 (ip), vehicle: saline with Tween-80.
Where [8] appears, read: dose: 100.0 mg/kg/injection, schedule: Q01DX009 (ip), vehicle: saline with Tween-80.
The mark [9] stands for this setting: dose: 200.0 mg/kg/injection, schedule: Q01DX009 (ip), vehicle: saline with Tween-80.
Where [10] appears, read: dose: 60.0 mg/kg/injection, schedule: Q01DX005 (ip), vehicle: saline with Tween-80.
Setting [11] is: dose: 120.0 mg/kg/injection, schedule: Q01DX005 (ip), vehicle: saline with Tween-80.
Where [12] appears, read: dose: 240.0 mg/kg/injection, schedule: Q01DX005 (ip), vehicle: saline with Tween-80.
Setting [13] is: dose: 50.0 mg/kg/injection, schedule: Q01DX005 (ip), vehicle: Klucel (hydroxypropylcellulose) (HPC).
Where [14] appears, read: dose: 100.0 mg/kg/injection, schedule: Q01DX005 (ip), vehicle: Klucel (hydroxypropylcellulose) (HPC).
[15] abbreviates: dose: 100.0 mg/kg/injection, schedule: Q04DX002 (ip), vehicle: saline with Tween-80.
The mark [16] stands for this setting: dose: 200.0 mg/kg/injection, schedule: Q04DX002 (ip), vehicle: saline with Tween-80.
The mark [17] stands for this setting: dose: 200.0 mg/kg/injection, schedule: Q01DX005 (ip), vehicle: Klucel (hydroxypropylcellulose) (HPC).

Turning to `COc1cc(O)c2c(c1)C(=O)c1cc3c(c(O)c1C2=O)C(O)C(OC)C(C)(O)C3=O` (configuration not stated), the T/C under setting [1] was 95 % of control; the T/C under setting [2] is 105 % of control; the T/C under setting [3] is 98 % of control; the T/C (dose: 50.0 mg/kg/injection, schedule: Q01DX009 (ip), vehicle: Klucel (hydroxypropylcellulose) (HPC)) is 94 % of control; the T/C (dose: 100.0 mg/kg/injection, schedule: Q01DX009 (ip), vehicle: Klucel (hydroxypropylcellulose) (HPC)) is 95 % of control.

As to `O=C(O)c1cc2ccccc2c(Br)c1O.O=[N+]([O-])C1CCC(O)C2[N-]CCCC21.[Cu+]`, the T/C is, setting by setting: (dose: 6.25 mg/kg/injection, schedule: Q01DX005 (ip), vehicle: saline with Tween-80) 97 % of control; (dose: 12.5 mg/kg/injection, schedule: Q01DX005 (ip), vehicle: saline with Tween-80) 100 % of control and 106 % of control; under setting [4], 106 % of control and 98 % of control.

For the compound `C=C1C[C@](C(N)=O)(C2OC3OC(C)(C)OC3C2OCc2ccccc2)OC1=O` (some centres not stated), the T/C reads like this: under setting [4], 103 % of control; under setting [5], 100 % of control; (dose: 100.0 mg/kg/injection, schedule: Q01DX001 (ip), vehicle: saline with Tween-80) 96 % of control; under setting [6], 92 % of control.

Take `O=C/C=C/c1cccc([N+](=O)[O-])c1`: the T/C reads like this: under setting [7], 113 % of control; under setting [8], 113 % of control; under setting [9], 104 % of control.

In the case of `COc1ccc(CCN)cc1`, the T/C (dose: 50.0 mg/kg/injection, schedule: Q01DX009 (ip), vehicle: saline) is 101 % of control and 106 % of control.

Take `O=[N+]([O-])c1ccc([S][Pb]([c]2ccccc2)([c]2ccccc2)[c]2ccccc2)cc1`: the T/C was 100 % of control under setting [1], 102 % of control under setting [2] and 89 % of control under setting [3].

Take `CCSCC1C(=O)C23C(O)C1CCC2C12COC3(O)C(O)C1C(C)(C)CCC2O` (configuration not stated): the T/C (dose: 22.5 mg/kg/injection, schedule: Q01DX009 (ip), vehicle: saline with Tween-80) was 108 % of control; the T/C (dose: 45.0 mg/kg/injection, schedule: Q01DX009 (ip), vehicle: saline with Tween-80) was 112 % of control; the T/C (dose: 90.0 mg/kg/injection, schedule: Q01DX009 (ip), vehicle: saline with Tween-80) was 94 % of control.

On to `O=[N+]([O-])c1ccc(NN=C(CO)CO)c([N+](=O)[O-])c1`, for which the T/C was 98 % of control (dose: 50.0 mg/kg/injection, schedule: Q01DX009 (ip), vehicle: suspension in saline); 98 % of control (dose: 100.0 mg/kg/injection, schedule: Q01DX009 (ip), vehicle: suspension in saline); 97 % of control (dose: 200.0 mg/kg/injection, schedule: Q01DX009 (ip), vehicle: suspension in saline); 97 % of control (dose: 400.0 mg/kg/injection, schedule: Q01DX009 (ip), vehicle: suspension in saline).

For `COCC(=O)c1ccccc1-c1ccccc1`, the T/C reads like this: under setting [5], 100 % of control; under setting [6], 103 % of control; (dose: 200.0 mg/kg/injection, schedule: Q01DX005 (ip), vehicle: saline with Tween-80) 110 % of control.

`O=C1N[C@@H]2C(=C[C@H](O)[C@@H](O)[C@H]2O)c2cc3c(c(O)c21)OCO3`: the T/C is 110 % of control (dose: 0.62 mg/kg/injection, schedule: Q01DX009 (ip), vehicle: saline with Tween-80); 100 % of control (dose: 5.0 mg/kg/injection, schedule: Q01DX009 (ip), vehicle: saline with Tween-80); 87 % of control (dose: 10.0 mg/kg/injection, schedule: Q01DX009 (ip), vehicle: saline with Tween-80).

Regarding `O=C(c1ccccc1)C1CCCN(CCc2ccccc2)C1` (configuration not stated), the T/C is 108 % of control under setting [5] and 109 % of control under setting [6].

With `NN1CC(=O)N(c2ccccc2)CC1=O`, the T/C by setting is: under setting [7], 100 % of control; under setting [8], 94 % of control; under setting [9], 94 % of control.

Turning to `CC(C)=Cc1cc(-c2cc(C=C(C)C)[nH]n2)n[nH]1`, the T/C reads like this: under setting [10], 97 % of control; under setting [11], 100 % of control; under setting [12], 102 % of control.

For the compound `CC(=O)C1=C(O)/C(=C\SCc2ccccc2)NC1=O`, the T/C by setting is: (dose: 8.75 mg/kg/injection, schedule: Q01DX005 (ip), vehicle: Klucel (hydroxypropylcellulose) (HPC)) 105 % of control; (dose: 17.5 mg/kg/injection, schedule: Q01DX005 (ip), vehicle: Klucel (hydroxypropylcellulose) (HPC)) 104 % of control; (dose: 35.0 mg/kg/injection, schedule: Q01DX005 (ip), vehicle: Klucel (hydroxypropylcellulose) (HPC)) 101 % of control.

For the compound `O=C(c1ccncc1)N(CO)N(Cn1c(=O)sc2ccccc21)Cn1c(=O)sc2ccccc21`, the T/C was 101 % of control under setting [1], 94 % of control under setting [2] and 92 % of control under setting [3].

As to `Nc1nc(N)nc(Nc2ccc(-c3cc4ccc(-c5ncc[nH]5)cc4[nH]3)cc2)n1`, the T/C runs as follows: (dose: 30.0 mg/kg/injection, schedule: Q01DX005 (ip), vehicle: Klucel (hydroxypropylcellulose) (HPC)) 153 % of control; (dose: 120.0 mg/kg/injection, schedule: Q01DX005 (ip), vehicle: Klucel (hydroxypropylcellulose) (HPC)) 164 % of control and 171 % of control; (dose: 240.0 mg/kg/injection, schedule: Q01DX005 (ip), vehicle: Klucel (hydroxypropylcellulose) (HPC)) 183 % of control and 188 % of control.

As for `COc1ccc2c(=O)c(Cc3c(-c4ccccc4)[nH]c4ccccc34)coc2c1`, the T/C was 98 % of control under setting [10], 91 % of control under setting [11] and 90 % of control under setting [12].

`O=C1C=CC(=Nc2cccc3c(N=C4C=CC(=O)O4)cccc23)O1`: the T/C (dose: 25.0 mg/kg/injection, schedule: Q01DX005 (ip), vehicle: Klucel (hydroxypropylcellulose) (HPC)) was 107 % of control; the T/C under setting [13] was 111 % of control; the T/C under setting [14] was 115 % of control.

Take `COC(=O)c1nn(-c2ccccc2)c2nc3ccccc3c-2c1C(=O)OC`: the T/C was 108 % of control under setting [15]; 108 % of control under setting [16]; 97 % of control (dose: 400.0 mg/kg/injection, schedule: Q04DX002 (ip), vehicle: saline with Tween-80).

Consider `Nc1ncnc2nc(Br)[nH]c12`, for which the T/C is, setting by setting: under setting [13], 111 % of control; under setting [14], 95 % of control; under setting [17], 106 % of control.

As to `CCOC(=O)n1oc2ccccc2c1=O`, the T/C under setting [13] was 99 % of control, the T/C under setting [14] was 98 % of control and the T/C under setting [17] was 98 % of control.

Take `CC(=O)CCNc1ccc(O)c2c1C(=O)c1ccccc1C2=O`: the T/C was 100 % of control (dose: 25.0 mg/kg/injection, schedule: Q04DX002 (ip), vehicle: saline with Tween-80); 101 % of control (dose: 50.0 mg/kg/injection, schedule: Q04DX002 (ip), vehicle: saline with Tween-80); 94 % of control under setting [15]; 100 % of control under setting [16].

On to `CN(C)c1ccc(C(c2cc3c(cc2O)OCO3)N2CCCCC2)cc1` (configuration not stated), for which the T/C reads like this: under setting [10], 113 % of control; under setting [11], 121 % of control.

Turning to `Cc1c(-c2ccccc2)nc(N(C)C)oc1=O`, the T/C under setting [10] is 105 % of control, the T/C under setting [11] was 101 % of control and the T/C under setting [12] is 100 % of control.

On to `COc1cccc2c(NCCCN(C)CCCNc3c4ccccc4nc4c(OC)cccc34)c3ccccc3nc12`, for which the T/C reads like this: (dose: 1.25 mg/kg/injection, schedule: Q01DX009 (ip), vehicle: water) 120 % of control; (dose: 2.5 mg/kg/injection, schedule: Q01DX009 (ip), vehicle: water) 124 % of control; (dose: 10.0 mg/kg/injection, schedule: Q01DX009 (ip), vehicle: water) 163 % of control.

For the compound `CCn1c2ccccc2c2ccc(N=Nc3ccccc3)cc21`, the T/C (dose: 100.0 mg/kg/injection, schedule: Q04DX003 (ip), vehicle: Klucel (hydroxypropylcellulose) (HPC)) was 100 % of control; the T/C (dose: 200.0 mg/kg/injection, schedule: Q04DX003 (ip), vehicle: Klucel (hydroxypropylcellulose) (HPC)) is 100 % of control; the T/C (dose: 400.0 mg/kg/injection, schedule: Q04DX003 (ip), vehicle: Klucel (hydroxypropylcellulose) (HPC)) was 105 % of control.

With `CC(=O)C(c1ccccc1)S(=O)(=O)c1ccc(C)cc1` (configuration not stated), the T/C is 97 % of control under setting [4], 94 % of control under setting [5] and 87 % of control under setting [6].
